Reference: patent US20130079309A1, “Method Of Treating Acute Lung Injury Using Sphingosine 1 Phosphate Analogs Or Sphingosine 1 Phosphate Receptor Agonists” (The Board of Trustees of the University of Illinois, priority 2010, published 2013)

Assays:
HPAEC [1] = assay: Intracellular calcium by Fura-2; format: cell-based, human; conditions: 1 μM
Experimental: To further explore the mechanistic differences in barrier regulation, intracellular calcium responses to the FTY720 analogs, S1P, and FTY720 were examined using Fura-2 (Harbeck et al., 2006, Sci STKE 2006: p16). HPAEC plated on 25-mm glass coverslips were loaded with 1 μM Fura-2/acetoxymethyl ester (Invitrogen, Carlsbad, Calif.) for 20 min at 37° C. in KRBH5 buffer (Krebs-Ringer-bicarbonate solution containing 119 mM NaCl, 4.7 mM KCl, 2.5 mM CaCl2, 1 mM MgCl2, 1 mM KH2PO4, 25 mM NaHCO3, mM HEPES-NaOH (pH 7.4), and 5 mM glucose). After replacement of the Fura-2 loading buffer with fresh KRBH5, coverslips were placed into the specimen stage of an inverted fluorescence microscope (Nikon TE-2000U). A Nikon Super Fluor 10× objective was used for these studies. Filters (340- and 380-nm excitation and 530-nm emission) were used for Fura-2 dual excitation ratio imaging. […] Fura-2 ratios were converted to [Ca^2+] using the equation: [Ca^2+]=(Kd′[(R−Rmin)/(Rmax−R)]×Sf/Sb) (Grynkiewicz et al., 1985, J Biol Chem 260: 3440-3450), where Kd′ is the dissociation constant for Fura-2 in the cytosol (225 nM) and Sf and Sb are the measured emission intensities at 380 nm for Ca^2+-free and Ca^2+-bound Fura-2, respectively. Data summaries for all Ca^2+ measurements are expressed as the means±S.E.

β-arrestin = conditions: 1 μM (SEW2871 10 μM; (S)-FTY720-phosphonate 1, 10, 50 μM), 5 h
Experimental: After another 2 h-incubation with fluorescence substrate, the fluorescence intensity (blue and green channels) were detected and the blue/green emission ratio was used as the activation indicator.

[2] = system: LPS-induced lung injury in C57BL/6 mice; assay: LPS-induced murine lung injury model; conditions: 1S 0.1-5.0 mg/kg i.p. single dose 1 h after LPS 2.5 mg/kg i.t.; 18 h; FTY720 0.5 mg/kg, S1P 0.026 mg/kg
Experimental: For experiments performed in intact animals, male C57BL/6 mice (8-10 weeks) were anesthetized with intraperitoneal ketamine and acetylpromazine mixture according to the approved protocol. Escherichia coli LPS solution (2.5 mg/kg) or sterile saline was instilled intratracheally via a 20-gauge catheter. Simultaneously, mice received either FTY720 or analogs (in doses: 0.01, 0.1, 0.5, 1, and 5 mg/kg i.p.) or PBS as vehicle. The animals were allowed to recover for 18 h. BAL and lungs were collected and stored at −70° C. for evaluation of lung injury.
Pure BAL fluids prepared for protein measurement or myeloperoxidase activity (MPO) lung homogenates were used to test albumin concentration. The assay was performed in 96-well plastic plates (Nalge Nunc A/S, Roskilde, Denmark). Plates were coated with mouse albumin (Bethyl Lab, Montgomery, Tex.), washed, and blocked. Aliquots (100-μl) of the sample or standard and 100 μl of goat anti-mouse albumin antibody (horseradish peroxidase-conjugated) (1:50,000) were then added, followed by incubation at 37° C. for 1 h. Finally, the substrate 3,3′,5,5′-tetramethylbenzidine was added for 10 min, and the reaction stopped by adding 100 μl of 2 M H2SO4. The absorbance at 450 nm was read on a kinetic microplate reader (Molecular Devices).
Myeloperoxidase (MPO) was isolated and measured from snap-frozen right lungs as follows (see also Remick et al., 1990, Am J Pathol 136: 49-60). The right lung was homogenized in 1 ml of 50 mM potassium phosphate, pH 6.0, with 0.5% hexadecyltrimethylammonium bromide. The resulting homogenate was sonicated and then centrifuged at 12,000 g for 15 min. The supernatant was mixed 1:30 with assay buffer (100 mM potassium phosphate, pH 6.0, 0.005% H2O2, 0.168 mg/ml o-dianisidine hydrochloride), and absorbance read at 490 nm. MPO units were calculated as the change in absorbance with respect to time.
Peripheral blood was examined by the Missouri University Research Animal Diagnostic Laboratory (Columbia, Mo.) for determination of total blood cell counts and differentials in blood samples.
Values are shown as the mean±S.E. Data were analyzed using a standard Student's t test or one-way analysis of variance, groups were compared by Newman-Keuls test, and significance in all cases was defined at p<0.05.

ERK = assay: Western blotting of HPAEC lysates for phospho-ERK; format: cell-based, human; conditions: 5 min
Experimental: (§1) After treatment as outlined for individual experiments, confluent HPAEC were lysed for Western blotting with phospho-MLC, pan-MLC, phospho-ERK, or pan-ERK antibodies. […] Membranes were then immunoblotted with primary antibodies (1:500-1000, 4° C., overnight) followed by secondary antibodies conjugated to horseradish peroxidase (1:5000, room temperature, 30 min) and detected with enhanced chemiluminescence (Pierce ECL or SuperSignal West Dura; Pierce Biotechnology, Rockford, Ill.) on Biomax MR film (Carestream Health, Rochester, N.Y.).

S1P receptor 1 (S1PR1) [3] = target: T1, S1P receptor 1 (S1PR1) (Homo sapiens, UniProt P21453); assay: Ubiquitination of S1PR1 in HPAEC (immunoprecipitation, ubiquitin Ab); conditions: 1 μM, 1 h
T1 sequence (P21453 whole entry): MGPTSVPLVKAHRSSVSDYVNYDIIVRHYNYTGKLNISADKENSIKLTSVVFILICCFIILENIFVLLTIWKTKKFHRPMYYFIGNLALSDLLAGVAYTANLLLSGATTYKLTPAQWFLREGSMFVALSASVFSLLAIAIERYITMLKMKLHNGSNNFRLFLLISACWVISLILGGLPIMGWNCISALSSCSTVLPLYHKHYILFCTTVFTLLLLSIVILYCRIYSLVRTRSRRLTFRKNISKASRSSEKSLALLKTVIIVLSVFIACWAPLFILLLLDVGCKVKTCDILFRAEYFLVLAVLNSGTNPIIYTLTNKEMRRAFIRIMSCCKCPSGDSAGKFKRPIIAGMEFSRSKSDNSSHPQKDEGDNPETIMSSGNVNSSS
Description: S1PR1 was immunoprecipitated by S1PR1Ab, and ubiquitination of S1PR1 was detected by ubiquitin Ab.

HPAEC [4] = assay: Transwell transendothelial permeability assay (FITC-dextran); format: cell-based, human; conditions: 1 μM (3R, 3S 25 μM), 1 h before FITC-dextran, 2-h incubation
Experimental: As a complementary approach to further characterize the barrier-protective effects of these FTY720 analogs in vitro, the permeability of FITC-labeled dextran across the pulmonary EC monolayer was assayed in response to treatment by the FTY720 analogs. […] Data were normalized to unstimulated control. n=3 independent experiments per condition; *, p<0.01 versus unstimulated condition (see FIG. 26).

HPAEC [5] = assay: Transendothelial electrical resistance (TER) of HPAEC; format: cell-based, human; conditions: 10 μM, within 60 min
Experimental: Cells were grown at 37° C. in a 5% CO2 incubator, and passages 6 to 9 were used for experiments. Media were changed 1 day before experimentation.

HPAEC [6] = conditions: Camp et al., 2009; cited from earlier work
MLC = assay: Western blotting of HPAEC lysates for phospho-MLC; format: cell-based, human; conditions: 5 min
Experimental: as §1

S1P receptor 1 (S1PR1) [7] = target: T1, S1P receptor 1 (S1PR1); assay: S1PR1 protein expression in HPAEC by Western blot; format: cell-based; design: Cells were collected and S1PR1 expression level was detected by Western blot; endogenous in cells; host or cells: HPAEC (human pulmonary artery endothelial cells); conditions: 1 μM (SEW2871 10 μM), 4 h
Description: Cells were collected and S1PR1 expression level was detected by Western blot.

HPAEC [8] = assay: Pharmacologic inhibitor effects on barrier enhancement (TER); conditions: 1 μM agonist, 60 min
Experimental: Endothelial cells were grown to confluence in polycarbonate wells containing evaporated gold microelectrodes (surface area, 10^−3 cm^2) in series with a large gold counter electrode (1 cm^2) connected to a phase-sensitive lock-in amplifier. Current was applied across the electrodes by a 4,000-Hz AC voltage source with amplitude of 1 V in series with a 1 MΩ resistance to approximate a constant current source (˜1 μA). The in-phase and out-of-phase voltages between the electrodes were monitored in real time with the lock-in amplifier and subsequently converted to scalar measurements of transendothelial impedance, of which resistance was the primary focus. TER was monitored for 30 minutes to establish a baseline resistance (R0) which, for bovine pulmonary endothelium, was typically between 8 to 12×10^3Ω (wells with R0<7×10^3Ω were rejected). As cells adhere and spread out on the microelectrode, TER increases (maximal at confluence), whereas cell retraction, rounding, or loss of adhesion is reflected by a decrease in TER. These measurements provide a highly sensitive biophysical assay that indicates the state of cell shape and focal adhesion. Values from each microelectrode were pooled at discrete time points and plotted versus time as the mean±SE of the mean. TER values from each microelectrode were pooled as discrete time points and plotted versus time as the mean±S.E.M.
In this experiment, confluent HPAEC were plated on gold microelectrodes and then stimulated with 1 μM S1P, FTY720, 1R, 1S, 2R, or 2S after either a 2-h preincubation with 100 ng/ml PTX, 30-min preincubation with 200 μM genistein (Gen), or 2-h preincubation with 2 mM MβCD or their respective vehicle controls. Data were pooled from multiple TER experiments (4-10 independent experiments per condition) and expressed as percentage inhibition of maximal barrier enhancement at 60 min relative to agonist-only control.

In the case of `CCCCCCCCCCCCC/C=C/[C@@H](O)[C@@H](N)COP(=O)(O)O` [S1P, sphingosine 1 phosphate], the “intracellular calcium [Ca2+]i” value (HPAEC [1]) is reported as “produced a transient Ca^2+ spike”, the “activation of β-arrestin (blue/green emission ratio)” value (β-arrestin) is reported as “strongly activated” and the “capillary leak as total BAL protein, relative to PBS control” value [2] is reported as “reduction in permeability by 1S was comparable to that achieved by S1P or FTY720”. The ERK phosphorylation (ERK) was “increased MLC and ERK phosphorylation”, the “ubiquitination of S1PR1 at 1 h” value (S1P receptor 1 (S1PR1) [3]) was “significant ubiquitination” and the “EC permeability to FITC-dextran vs control EC” value (HPAEC [4]) was “significantly decreased permeability”. For the same compound, the “maximal TER change” value (HPAEC [5]) was “somewhat barrier-disruptive”, the “doses that can disrupt EC monolayer integrity” value (HPAEC [6]) was greater than 10 µM and the MLC phosphorylation (MLC) was “increased MLC and ERK phosphorylation”. For the same compound, the “S1PR1 expression level compared to control” value (S1P receptor 1 (S1PR1) [7]) was 38.1%, the “% Inhibition of Maximal TER Response (of Agonist-Only Control), PTX” value (HPAEC [8]; 2-h preincubation 100 ng/ml PTX) was 98.35 (±0.25) % and the “% Inhibition of Maximal TER Response (of Agonist-Only Control), MβCD” value (HPAEC [8]; 2-h preincubation 2 mM MβCD) was 81.5 (±8.0) %. The “% Inhibition of Maximal TER Response (of Agonist-Only Control), Gen” value (HPAEC [8]; 30-min preincubation 200 μM genistein) was 42.4 (±13.9) %.
